Test results from PubChem BioAssay AID248 (DTP/NCI, 2004).
Where “and” joins values, the source holds several entries; their conditions need not be identical. Identical values can stand only once. Toxic doses and inconclusive results are not listed.

System: L1210 leukemia ip in BDF1 mice, survival T/C
Experiment: NCI In Vivo Anticancer Drug Screen. Data for tumor model L1210 Leukemia (intraperitoneal) in B6D2F1 (BDF1) mice
Details: endpoint: mean survival time, higher = longer survival
Method in brief: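 Survival endpoint. Drug-treated group vs vehicle group, expressed as T divided by C. Tumor passaged by transplantation.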

[1] = dose: 100.0 mg/kg/injection, schedule: Q01DX009 (ip), vehicle: saline with Tween-80
[2] = dose: 100.0 mg/kg/injection, schedule: Q04DX003 (ip), vehicle: saline with Tween-80
[3] = dose: 200.0 mg/kg/injection, schedule: Q01DX009 (ip), vehicle: saline with Tween-80
[4] = dose: 200.0 mg/kg/injection, schedule: Q04DX003 (ip), vehicle: saline with Tween-80
[5] = dose: 400.0 mg/kg/injection, schedule: Q01DX009 (ip), vehicle: saline with Tween-80
[6] = dose: 100.0 mg/kg/injection, schedule: Q04DX003 (ip), vehicle: saline
[7] = dose: 200.0 mg/kg/injection, schedule: Q04DX003 (ip), vehicle: saline
[8] = dose: 400.0 mg/kg/injection, schedule: Q04DX003 (ip), vehicle: saline
[9] = dose: 100.0 mg/kg/injection, schedule: Q01DX009 (ip), vehicle: Klucel (hydroxypropylcellulose) (HPC)
[10] = dose: 200.0 mg/kg/injection, schedule: Q01DX009 (ip), vehicle: Klucel (hydroxypropylcellulose) (HPC)

O=C(/C=C/c1ccccc1)NC(=S)Nc1cc(C(F)(F)F)ccc1Cl
T/C (dose: 100.0 mg/kg/injection, schedule: Q01DX001 (ip), vehicle: saline with Tween-80): 103 % of control | T/C [1]: 92 % of control and 86 % of control | T/C (dose: 100.0 mg/kg/injection, schedule: Q04DX002 (ip), vehicle: saline with Tween-80): 98 % of control and 90 % of control | T/C [2]: 100 % of control | T/C (dose: 200.0 mg/kg/injection, schedule: Q01DX001 (ip), vehicle: saline with Tween-80): 95 % of control | T/C [3]: 92 % of control and 90 % of control | T/C (dose: 200.0 mg/kg/injection, schedule: Q04DX002 (ip), vehicle: saline with Tween-80): 93 % of control and 114 % of control | T/C [4]: 94 % of control | T/C (dose: 400.0 mg/kg/injection, schedule: Q01DX001 (ip), vehicle: saline with Tween-80): 101 % of control | T/C [5]: 95 % of control and 89 % of control | T/C (dose: 400.0 mg/kg/injection, schedule: Q04DX002 (ip), vehicle: saline with Tween-80): 95 % of control and 101 % of control

Cc1ccc(N=Nc2c(C)nc(N)nc2C)cc1
T/C (dose: 75.0 mg/kg/injection, schedule: Q01DX001 (ip), vehicle: saline): 97 % of control | T/C (dose: 150.0 mg/kg/injection, schedule: Q01DX001 (ip), vehicle: saline): 91 % of control

O=S(=O)(O)Cc1ccccc1O
T/C [1]: 96 % of control | T/C [3]: 102 % of control | T/C [5]: 93 % of control

CN(C)CCc1nn[nH]n1
T/C [6]: 102 % of control | T/C [7]: 97 % of control | T/C [8]: 105 % of control

Cc1ccc(NC(=O)Nc2cc([N+](=O)[O-])ccc2C)cc1C
T/C (dose: 100.0 mg/kg/injection, schedule: Q04DX003 (ip), vehicle: Klucel (hydroxypropylcellulose) (HPC)): 88 % of control | T/C (dose: 200.0 mg/kg/injection, schedule: Q04DX003 (ip), vehicle: Klucel (hydroxypropylcellulose) (HPC)): 88 % of control | T/C (dose: 400.0 mg/kg/injection, schedule: Q04DX003 (ip), vehicle: Klucel (hydroxypropylcellulose) (HPC)): 96 % of control

CCN(CC)C(=O)CSC#N
T/C (dose: 6.25 mg/kg/injection, schedule: Q04DX002 (ip), vehicle: other): 88 % of control | T/C (dose: 12.5 mg/kg/injection, schedule: Q04DX002 (ip), vehicle: other): 103 % of control

CCN(CC)CCCC(C)Nc1cc(OC)cc2cccnc12 (stereo unspecified)
T/C (dose: 10.0 mg/kg/injection, schedule: Q01DX009 (ip), vehicle: Klucel (hydroxypropylcellulose) (HPC)): 93 % of control | T/C (dose: 20.0 mg/kg/injection, schedule: Q01DX001 (ip), vehicle: Klucel (hydroxypropylcellulose) (HPC)): 100 % of control | T/C (dose: 20.0 mg/kg/injection, schedule: Q01DX009 (ip), vehicle: Klucel (hydroxypropylcellulose) (HPC)): 96 % of control | T/C (dose: 40.0 mg/kg/injection, schedule: Q01DX001 (ip), vehicle: Klucel (hydroxypropylcellulose) (HPC)): 100 % of control | T/C (dose: 40.0 mg/kg/injection, schedule: Q01DX009 (ip), vehicle: Klucel (hydroxypropylcellulose) (HPC)): 96 % of control

C=CCc1c2c(ccc(OC)c1=O)-c1c(cc(OC)c(OC)c1OC)CCC2NC(C)=O (stereo unspecified)
T/C (dose: 100.0 mg/kg/injection, schedule: Q01DX001 (ip), vehicle: carboxymethylcellulose (CMC)): 106 % of control | T/C (dose: 200.0 mg/kg/injection, schedule: Q01DX001 (ip), vehicle: carboxymethylcellulose (CMC)): 109 % of control | T/C (dose: 400.0 mg/kg/injection, schedule: Q01DX001 (ip), vehicle: carboxymethylcellulose (CMC)): 109 % of control

OCC1c2ccccc2C(CO)c2c1ccc1ccccc21 (stereo unspecified)
T/C (dose: 100.0 mg/kg/injection, schedule: Q01DX001 (ip), vehicle: Klucel (hydroxypropylcellulose) (HPC)): 98 % of control | T/C (dose: 200.0 mg/kg/injection, schedule: Q01DX001 (ip), vehicle: Klucel (hydroxypropylcellulose) (HPC)): 98 % of control | T/C (dose: 400.0 mg/kg/injection, schedule: Q01DX001 (ip), vehicle: Klucel (hydroxypropylcellulose) (HPC)): 100 % of control

CC(=O)c1cccc(NC(=O)Oc2ccc(F)cc2Cl)c1
T/C [9]: 97 % of control | T/C [10]: 108 % of control

CC1(C)N=C(N)N=C(N)N1c1ccc(OCCNC(=O)Nc2ccc(S(=O)(=O)F)cc2)c(Cl)c1
T/C (dose: 25.0 mg/kg/injection, schedule: Q01DX009 (ip), vehicle: saline): 102 % of control | T/C (dose: 50.0 mg/kg/injection, schedule: Q01DX009 (ip), vehicle: saline): 105 % of control | T/C (dose: 100.0 mg/kg/injection, schedule: Q01DX009 (ip), vehicle: saline): 113 % of control

C=CCC(B1OCCO1)B1OCCO1
T/C (dose: 100.0 mg/kg/injection, schedule: Q04DX003 (ip), vehicle: saline sonified): 106 % of control | T/C (dose: 200.0 mg/kg/injection, schedule: Q04DX003 (ip), vehicle: saline sonified): 95 % of control | T/C (dose: 400.0 mg/kg/injection, schedule: Q04DX003 (ip), vehicle: saline sonified): 110 % of control

O=C1OCC/C1=C/OS(=O)(=O)C(F)(F)F
T/C (dose: 12.5 mg/kg/injection, schedule: Q01DX009 (ip), vehicle: water): 105 % of control | T/C (dose: 25.0 mg/kg/injection, schedule: Q01DX009 (ip), vehicle: water): 106 % of control | T/C (dose: 50.0 mg/kg/injection, schedule: Q01DX009 (ip), vehicle: water): 105 % of control | T/C (dose: 100.0 mg/kg/injection, schedule: Q01DX009 (ip), vehicle: water): 104 % of control

CCOC(=O)c1cc2ccccc2oc1=O
T/C (dose: 25.0 mg/kg/injection, schedule: Q01DX009 (ip), vehicle: saline with Tween-80): 102 % of control | T/C (dose: 25.0 mg/kg/injection, schedule: Q04DX003 (ip), vehicle: saline with Tween-80): 103 % of control | T/C (dose: 50.0 mg/kg/injection, schedule: Q01DX001 (ip), vehicle: other): 95 % of control | T/C (dose: 50.0 mg/kg/injection, schedule: Q01DX009 (ip), vehicle: saline with Tween-80): 98 % of control | T/C (dose: 50.0 mg/kg/injection, schedule: Q04DX003 (ip), vehicle: saline with Tween-80): 98 % of control and 89 % of control | T/C [1]: 94 % of control | T/C [2]: 100 % of control and 103 % of control

CN(N=O)C(=O)Nc1ccc(NC(=O)N(C)N=O)cc1
T/C (dose: 30.0 mg/kg/injection, schedule: Q01DX Z (ip), vehicle: carboxymethylcellulose (CMC)): 162 % of control | T/C (dose: 40.0 mg/kg/injection, schedule: Q01DX Z (ip), vehicle: carboxymethylcellulose (CMC)): 151 % of control | T/C (dose: 45.0 mg/kg/injection, schedule: Q01DX001 (ip), vehicle: carboxymethylcellulose (CMC)): 120 % of control | T/C (dose: 50.0 mg/kg/injection, schedule: Q01DX Z (ip), vehicle: carboxymethylcellulose (CMC)): 97 % of control | T/C (dose: 360.0 mg/kg/injection, schedule: Q01DX001 (ip), vehicle: carboxymethylcellulose (CMC)): 91 % of control

c1ccc2cc3c(ccc4cccc[n+]43)cc2c1
T/C (dose: 50.0 mg/kg/injection, schedule: Q01DX001 (ip), vehicle: saline): 119 % of control

CCc1c(Nc2ccc(Cl)c(Cl)c2)[nH]c(N)nc1=S
T/C (dose: 100.0 mg/kg/injection, schedule: Q01DX Z (ip), vehicle: methylcellulose (MC)): 90 % of control | T/C (dose: 200.0 mg/kg/injection, schedule: Q01DX Z (ip), vehicle: methylcellulose (MC)): 105 % of control

Cc1cc(C)c(CCO)c(C)c1
T/C (dose: 25.0 mg/kg/injection, schedule: Q01DX009 (ip), vehicle: DMSO): 98 % of control | T/C (dose: 25.0 mg/kg/injection, schedule: Q04DX003 (ip), vehicle: DMSO): 93 % of control | T/C (dose: 50.0 mg/kg/injection, schedule: Q01DX009 (ip), vehicle: DMSO): 96 % of control | T/C (dose: 50.0 mg/kg/injection, schedule: Q04DX003 (ip), vehicle: DMSO): 102 % of control | T/C (dose: 100.0 mg/kg/injection, schedule: Q04DX003 (ip), vehicle: DMSO): 102 % of control

N#Cc1cccc[n+]1Cc1ccc([N+](=O)[O-])cc1
T/C [2]: 97 % of control

CC(=O)C(C(C)=O)C(c1ccccc1)C(C(C)=O)C(C)=O
T/C [9]: 94 % of control | T/C [10]: 91 % of control

CC[As](=O)(O)CCCc1ccccc1
T/C (dose: 12.5 mg/kg/injection, schedule: Q01DX001 (ip), vehicle: Klucel (hydroxypropylcellulose) (HPC)): 106 % of control | T/C (dose: 25.0 mg/kg/injection, schedule: Q01DX001 (ip), vehicle: Klucel (hydroxypropylcellulose) (HPC)): 109 % of control

CCCCCCCCC(CO)CCCCCC (stereo unspecified)
T/C [6]: 100 % of control | T/C [7]: 106 % of control | T/C [8]: 92 % of control

CCCC(=O)Nc1ccc(Cl)c(Cl)c1
T/C [2]: 98 % of control | T/C [4]: 102 % of control | T/C (dose: 400.0 mg/kg/injection, schedule: Q04DX003 (ip), vehicle: saline with Tween-80): 89 % of control

CC1(C)OC2(C)OC1(C)OC2(C)C
T/C (dose: 75.0 mg/kg/injection, schedule: Q01DX009 (ip), vehicle: carboxymethylcellulose (CMC)): 100 % of control | T/C (dose: 150.0 mg/kg/injection, schedule: Q01DX009 (ip), vehicle: carboxymethylcellulose (CMC)): 103 % of control | T/C (dose: 300.0 mg/kg/injection, schedule: Q01DX009 (ip), vehicle: carboxymethylcellulose (CMC)): 105 % of control
